Experimental data: the supplement of paper PMC13380429

Assays:
A549-ACE2 [1] = experiment: phospholipidosis EC50; higher = less potent phospholipidosis inducer
Calu-3 [2] = experiment: drug sensitivity score (DSS) for viability; higher = more toxic; extreme values may be limits of the assay; conditions: 72 h
U2OS [3] = experiment: as above; conditions: 72 h
Caco-2 [4] = experiment: as above; conditions: 72 h
HepG2 [5] = experiment: as above; conditions: 72 h
Vero E6 [6] = experiment: as above; conditions: 72 h
Calu-3 [7] = experiment: relative viability EC50 (midpoint between 100% and the lowest measured viability); higher = less toxic; conditions: 72 h
U2OS [8] = experiment: as above; conditions: 72 h
Caco-2 [9] = experiment: as above; conditions: 72 h
HepG2 [10] = experiment: as above; conditions: 72 h
Vero E6 [11] = experiment: as above; conditions: 72 h
Calu-3 [12] = experiment: cell viability relative to DMSO; higher = less toxic; conditions: 72 h
U2OS [13] = experiment: as above; conditions: 72 h
Caco-2 [14] = experiment: as above; conditions: 72 h
HepG2 [15] = experiment: as above; conditions: 72 h
Vero E6 [16] = experiment: as above; conditions: 72 h
[17] = system: A549-ACE2 infected with SARS-CoV-2; experiment: SARS-CoV-2 infection rate relative to DMSO; higher = more infection; conditions: 24 h
A549-ACE2 [18] = experiment: drug-induced phospholipidosis relative to tamoxifen; higher = more phospholipidosis
[19] = system: A549-ACE2 infected with SARS-CoV-2; experiment: cell count relative to DMSO; higher = less toxic; conditions: 24 h
[20] = system: A549-ACE2 infected with SARS-CoV-2; experiment: morphology score (similarity to uninfected cells); higher = more like uninfected cells; conditions: 24 h

CNCc1ccc(C)c(NC(=O)c2ccc(Nc3nc(-c4ccccc4)c4ccccc4n3)cc2)c1
Conditions	SARS-CoV-2 infection rate [%]	cell count [%]	cell viability [%]	morphology score	phospholipidosis EC50 [nM]
A549-ACE2 [1], 24 h	–	–	–	–	1580
A549-ACE2 [1], 48 h	–	–	–	–	1490
A549-ACE2 [1], 72 h	–	–	–	–	2070
Caco-2 [14], 1 nM	–	–	93.8	–	–
Caco-2 [14], 10 nM	–	–	99.5	–	–
Caco-2 [14], 100 nM	–	–	90.1	–	–
Caco-2 [14], 1000 nM	–	–	98.3	–	–
Caco-2 [14], 10000 nM	–	–	25.4	–	–
Calu-3 [12], 1 nM	–	–	96.6	–	–
Calu-3 [12], 10 nM	–	–	101	–	–
Calu-3 [12], 100 nM	–	–	102	–	–
Calu-3 [12], 1000 nM	–	–	92	–	–
Calu-3 [12], 10000 nM	–	–	4.1	–	–
HepG2 [15], 1 nM	–	–	107	–	–
HepG2 [15], 10 nM	–	–	104	–	–
HepG2 [15], 100 nM	–	–	105	–	–
HepG2 [15], 1000 nM	–	–	88.3	–	–
HepG2 [15], 10000 nM	–	–	36.8	–	–
U2OS [13], 1 nM	–	–	100	–	–
U2OS [13], 10 nM	–	–	101	–	–
U2OS [13], 100 nM	–	–	103	–	–
U2OS [13], 1000 nM	–	–	100	–	–
U2OS [13], 10000 nM	–	–	35.3	–	–
Vero E6 [16], 1 nM	–	–	101	–	–
Vero E6 [16], 10 nM	–	–	99.6	–	–
Vero E6 [16], 100 nM	–	–	100	–	–
Vero E6 [16], 1000 nM	–	–	98.2	–	–
Vero E6 [16], 10000 nM	–	–	42.1	–	–
[17], 0.1 µM	99	–	–	–	–
[17], 0.3 µM	86	–	–	–	–
[17], 1 µM	89	–	–	–	–
[17], 3 µM	24	–	–	–	–
[19], 0.1 µM	–	103	–	–	–
[19], 0.3 µM	–	101	–	–	–
[19], 1 µM	–	108	–	–	–
[19], 3 µM	–	127	–	–	–
[20], 0.1 µM	–	–	–	0.21	–
[20], 0.3 µM	–	–	–	0.36	–
[20], 1 µM	–	–	–	0.34	–
[20], 3 µM	–	–	–	0.88	–

Conditions	drug sensitivity score	relative viability EC50 [nM]
Caco-2 [4]	4.3	–
Caco-2 [9]	–	3000
Calu-3 [2]	6.6	–
Calu-3 [7]	–	2480
HepG2 [5]	5.4	–
HepG2 [10]	–	1810
U2OS [3]	3.5	–
U2OS [8]	–	3210
Vero E6 [6]	3.4	–
Vero E6 [11]	–	2940

drug-induced phospholipidosis [%], A549-ACE2 [18]
Conditions	0.3 µM	0.833333 µM	3.33333 µM	6.66667 µM	10 µM	30 µM
24 h	5.53	23.7	77.2	98.9	84.8	99.7
48 h	5.67	17.1	89.4	102	92.4	–
72 h	1.97	13.2	86.2	99.1	115	–
